The subject of one experiment is MCP-1. As to the kind of experiment: ELISA of RPE-choroid complex after laser injury: MCP-1. Particulars: laser-treated animals, 3 days after laser injury; 0.3 mg/kg BW daily i.p. Type of experiment: in vivo, rat. As for the experimental part: To block CB, a specific CBD, Compound 11 described above, was used (R-tech Ueno, Ltd., Tokyo, Japan). After laser injury, the inhibitor (0.3 mg/kg BW) was administered to the animals by daily i.p. injections. As a control, some animals received the same regimen for the vehicle solution alone.
The RPE-choroid complex was carefully isolated from eyes 3 days after photocoagulation and placed in 300 μl of lysis buffer supplemented with protease inhibitors and sonicated. The lysate was centrifuged at 15,000 rpm for 15 minutes at 4° C. and the levels of TNF-α, monocyte chemotactic protein (MCP)-1, and intercellular adhesion molecule (ICAM)-1 were determined with rat TNF-α (BI) bioscience), MCP-1 (BD bioscience) and ICAM-1 (R&D Systems, Minneapolis, Minn.) enzyme-linked immunosorbent assay (ELISA) kits according to the manufacturers' protocols. Total protein concentration was determined using a Bio-Rad Protein Assay Kit (Bio-Rad Laboratories Hercules, Calif.) and dilutions of bovine serum albumin (Bio-Rad Laboratories) as standards.

Experiment [1] concerns the target T1, monoamine oxidase (MAO)-A (Homo sapiens, UniProt P21397).
T1 sequence (P21397 1-527): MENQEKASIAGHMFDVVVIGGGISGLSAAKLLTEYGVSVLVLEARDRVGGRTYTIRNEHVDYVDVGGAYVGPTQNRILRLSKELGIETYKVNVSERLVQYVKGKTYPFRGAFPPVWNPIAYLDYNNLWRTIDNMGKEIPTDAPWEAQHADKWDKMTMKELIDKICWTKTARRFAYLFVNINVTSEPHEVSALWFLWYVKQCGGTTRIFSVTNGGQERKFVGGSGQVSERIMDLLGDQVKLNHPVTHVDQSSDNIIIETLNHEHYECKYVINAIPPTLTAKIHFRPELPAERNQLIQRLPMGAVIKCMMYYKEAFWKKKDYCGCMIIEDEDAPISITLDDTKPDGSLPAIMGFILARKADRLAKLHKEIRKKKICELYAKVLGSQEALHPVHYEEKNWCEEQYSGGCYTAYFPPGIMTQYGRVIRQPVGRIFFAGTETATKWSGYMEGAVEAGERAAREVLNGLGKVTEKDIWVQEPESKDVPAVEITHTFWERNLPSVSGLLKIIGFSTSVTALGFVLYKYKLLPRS
Particulars: functionally related monoamine oxidase; read-out: IC50 against MAO-A; cited from earlier work.

In the next experiment the target is T2, MAO-3 (Homo sapiens, UniProt P27338).
T2 sequence (P27338 1-520): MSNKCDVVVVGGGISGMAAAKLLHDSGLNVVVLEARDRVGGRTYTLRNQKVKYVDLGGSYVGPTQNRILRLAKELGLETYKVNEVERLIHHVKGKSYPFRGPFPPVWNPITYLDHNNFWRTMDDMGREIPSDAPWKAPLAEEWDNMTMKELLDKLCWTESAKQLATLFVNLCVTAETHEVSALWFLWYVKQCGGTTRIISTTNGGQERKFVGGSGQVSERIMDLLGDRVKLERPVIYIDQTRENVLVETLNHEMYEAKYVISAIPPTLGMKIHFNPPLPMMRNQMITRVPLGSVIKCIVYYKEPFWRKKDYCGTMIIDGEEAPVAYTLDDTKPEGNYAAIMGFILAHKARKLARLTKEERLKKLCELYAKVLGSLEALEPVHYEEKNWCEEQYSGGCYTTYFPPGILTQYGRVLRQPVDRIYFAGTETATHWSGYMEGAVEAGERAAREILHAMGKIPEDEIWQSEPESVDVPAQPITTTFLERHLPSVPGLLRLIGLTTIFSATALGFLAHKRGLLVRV
To be noted: functionally related monoamine oxidase; read-out: IC50 against MAO-3; cited from earlier work.

One may read the IC50 as the concentration at which inhibition is half-maximal.

Turning to `CC(=O)Nc1nc(CCc2ccc(NC(=N)NN)cc2)c(Cc2ccc(S(C)(=O)=O)cc2)s1` [Compound II], the “protein level of MCP-1 in the RPE-choroid complex” value in the experiment on MCP-1 was 662 ± 52 pg/mg. Also, the IC50 (in experiment [1]; at MAO-3) was over 10 µM throughout.

Source of the values: patent US20220079889A1, “USE OF CANNABANOIDS IN THE TREATMENT OF PROLIFERATIVE DIABETIC RETINOPATHY” (VERDANT PHARMACEUTICALS, LLC, priority 2020, published 2022).
